Data taken from patent US12528814B2, “Bifunctional degraders of interleukin-1 receptor-associated kinases and therapeutic use thereof” (NURIX THERAPEUTICS, INC., priority 2020, dated 2026).
“Also recorded” adds a separate entry of the source.

What was measured:
IRAK4 [1] = molecular target: T1, IRAK4 (Homo sapiens (Human), UniProt Q9NWZ3); assay: IRAK4 Degradation Competition/Rescue Assay; type: cell-based; conditions: degrader 1 μM; 1 hr pre-treatment with Nedd8i (5 μM) or MG-132 (20 or 50 μM); HiBiT Jurkat clone 8D5
T1 sequence (Q9NWZ3 whole entry): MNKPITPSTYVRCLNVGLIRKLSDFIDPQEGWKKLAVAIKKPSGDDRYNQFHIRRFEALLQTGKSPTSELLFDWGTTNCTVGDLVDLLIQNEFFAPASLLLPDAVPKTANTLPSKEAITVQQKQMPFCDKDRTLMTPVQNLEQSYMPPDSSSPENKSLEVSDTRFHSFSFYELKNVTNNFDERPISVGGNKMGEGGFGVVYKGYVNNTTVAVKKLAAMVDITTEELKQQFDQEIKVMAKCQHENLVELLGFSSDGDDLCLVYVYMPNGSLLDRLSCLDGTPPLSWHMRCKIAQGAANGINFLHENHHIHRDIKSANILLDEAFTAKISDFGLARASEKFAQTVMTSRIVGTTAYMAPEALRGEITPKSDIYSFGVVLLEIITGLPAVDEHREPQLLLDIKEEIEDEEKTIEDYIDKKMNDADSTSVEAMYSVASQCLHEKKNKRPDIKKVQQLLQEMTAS
From the text: IRAK4 Degradation Competition/Rescue Assay

GSPT1 = GSPT1 (Homo sapiens (Human), UniProt P15170+Q96SW2); assay: Western Assay for GSPT1 Degradation; type: cell-based; conditions: wild-type Jurkat cells, 24 hrs
Sequence of GSPT1 (P15170 whole entry): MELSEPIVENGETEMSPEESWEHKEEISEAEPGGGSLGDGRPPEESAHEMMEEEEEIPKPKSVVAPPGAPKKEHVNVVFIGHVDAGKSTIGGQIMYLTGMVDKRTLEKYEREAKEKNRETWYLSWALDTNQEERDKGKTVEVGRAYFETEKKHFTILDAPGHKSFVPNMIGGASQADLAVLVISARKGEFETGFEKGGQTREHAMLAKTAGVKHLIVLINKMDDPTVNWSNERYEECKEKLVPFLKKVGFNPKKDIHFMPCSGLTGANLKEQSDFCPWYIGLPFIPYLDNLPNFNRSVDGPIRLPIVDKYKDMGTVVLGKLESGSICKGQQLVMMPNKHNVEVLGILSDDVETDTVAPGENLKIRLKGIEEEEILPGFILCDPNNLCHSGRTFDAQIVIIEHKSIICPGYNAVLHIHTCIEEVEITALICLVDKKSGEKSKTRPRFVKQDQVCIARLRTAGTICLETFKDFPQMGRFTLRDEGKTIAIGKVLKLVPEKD
Sequence of GSPT1 (Q96SW2 whole entry): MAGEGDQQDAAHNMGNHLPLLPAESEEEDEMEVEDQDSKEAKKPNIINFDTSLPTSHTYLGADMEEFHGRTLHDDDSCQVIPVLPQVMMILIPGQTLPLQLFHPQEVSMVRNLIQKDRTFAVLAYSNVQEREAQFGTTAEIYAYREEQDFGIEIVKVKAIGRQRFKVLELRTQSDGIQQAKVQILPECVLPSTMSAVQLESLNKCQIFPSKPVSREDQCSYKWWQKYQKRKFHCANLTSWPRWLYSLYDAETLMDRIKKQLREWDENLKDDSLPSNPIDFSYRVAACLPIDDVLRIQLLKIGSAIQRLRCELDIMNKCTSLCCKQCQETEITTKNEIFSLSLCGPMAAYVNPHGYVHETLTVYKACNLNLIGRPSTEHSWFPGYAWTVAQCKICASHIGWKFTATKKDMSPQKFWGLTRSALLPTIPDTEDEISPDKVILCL
Sequence of GSPT1 (Q16531 whole entry partner): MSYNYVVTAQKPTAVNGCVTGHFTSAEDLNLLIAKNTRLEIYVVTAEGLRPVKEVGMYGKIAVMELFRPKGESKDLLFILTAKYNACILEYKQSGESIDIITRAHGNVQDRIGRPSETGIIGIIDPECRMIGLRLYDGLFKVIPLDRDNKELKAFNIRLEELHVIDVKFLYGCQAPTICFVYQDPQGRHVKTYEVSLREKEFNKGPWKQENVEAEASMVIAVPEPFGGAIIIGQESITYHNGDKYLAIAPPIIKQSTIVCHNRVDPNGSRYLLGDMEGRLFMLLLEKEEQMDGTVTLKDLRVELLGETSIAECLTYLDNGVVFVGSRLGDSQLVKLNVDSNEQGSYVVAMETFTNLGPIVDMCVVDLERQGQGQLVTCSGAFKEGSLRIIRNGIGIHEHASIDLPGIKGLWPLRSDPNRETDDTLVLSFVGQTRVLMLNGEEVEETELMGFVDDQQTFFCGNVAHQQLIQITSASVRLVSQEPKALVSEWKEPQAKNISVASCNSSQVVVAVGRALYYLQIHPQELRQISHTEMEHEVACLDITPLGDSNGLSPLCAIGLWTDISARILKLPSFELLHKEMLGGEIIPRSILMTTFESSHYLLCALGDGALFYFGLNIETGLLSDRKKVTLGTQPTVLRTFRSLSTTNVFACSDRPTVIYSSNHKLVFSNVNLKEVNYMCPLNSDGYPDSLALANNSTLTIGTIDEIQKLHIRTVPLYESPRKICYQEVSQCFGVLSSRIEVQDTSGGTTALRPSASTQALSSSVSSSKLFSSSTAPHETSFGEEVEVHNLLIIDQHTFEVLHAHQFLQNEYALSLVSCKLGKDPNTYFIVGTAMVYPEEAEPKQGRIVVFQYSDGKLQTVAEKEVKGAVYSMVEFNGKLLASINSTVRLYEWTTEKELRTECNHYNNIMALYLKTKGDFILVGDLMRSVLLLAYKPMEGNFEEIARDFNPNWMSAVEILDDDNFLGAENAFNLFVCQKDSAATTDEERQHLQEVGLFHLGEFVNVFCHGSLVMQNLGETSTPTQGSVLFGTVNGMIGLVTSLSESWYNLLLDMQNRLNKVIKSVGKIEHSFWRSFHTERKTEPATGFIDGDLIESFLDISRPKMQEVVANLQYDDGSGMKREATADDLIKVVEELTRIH
Method: (§1) Biological Example 4 Western Assay for IRAK4, IRAK1 and GSPT1 Degradation
(§2) DMSO was stamped into wells A12-H12 at 500 nL/well (NC, Negative Control, maximum signal). […] Following incubation, plates were centrifuged for 5 min at 1600 rpm. Media was removed and cell pellets were lysed in 50 μL lysis buffer (RIPA buffer (Fisher, PI89901), cOmplete Mini EDTA-free protease inhibitor (Sigma 11836170001), Protease Inhibitor Cocktail (Sigma, P2714), Phosphatase Inhibitor Cocktail 2 and 3 (Sigma, P5726 and P0044), Benzonase (Sigma, E1014)). Cells were lysed overnight at −20° C. Plates were centrifuged for 5 min at 1600 rpm and lysate supernatants were transferred to storage plates. Protein levels were determined by BCA Assay performed according to manufacturer's protocol (EMD Millipore, cat. no. 71285-3). Samples were combined with (4×) LDS Sample Buffer and (10×) Reducing Agent and H2O to equally load 10 ug protein per lane of a 26-well NuPAGE 4-12% Bis-Tris protein gel (1.0 mm, Thermo cat. no. NP0326). Samples were separated by running gels at constant 200 V in NuPAGE MES SDS Running Buffer. Following electrophoresis, proteins were transferred to nitrocellulose membranes using an iBlot Gel Transfer Device and iBlot Gel Transfer Stacks (Thermo cat. no. IB21001 and IB301001) and transfer method PO (20V 1 min, 23V 4 min, 25V 2 min). Membranes were blocked for 1 hr in 5% milk solution (TBS (0.2% Tween-20)).
(§3) Following blocking, membranes were incubated with primary antibody overnight at 4° C. with gentle shaking. The primary antibodies and dilutions used were as follows: IRAK4—abcam ab3200612, 1:500; IRAK1—Cell Signaling Technologies D51G7 #4504, 1:500; GSPT1—Cell Signaling Technologies #14980, 1:500). Blots were washed 3× in TBS (0.2% Tween-20), 5-10 min per wash. Following washes, blots were incubated in secondary HRP-conjugated antibody (Promega anti-Rabbit IgG (H+L) HRP, cat. no. W4011), 1:5000 in 5% milk solution (TBS (0.2% Tween-20)), for 1 hr at room temperature with gentle shaking. Blots were washed 3× in TBS (0.2% Tween-20), 5-10 min per wash. Blots were incubated with 1:1 mix of ECL reagents 1 & 2 (Amersham ECL Western Blotting Detection Reagent, cat. no. RPN2106) for 2-3 min at room temperature. Bands were visualized using a Protein Simple imager. Blots were then re-probed with a combination of anti-actin antibody (Sigma Monoclonal Mouse Anti-3-Actin (clone AC-15), cat. no. A5441) and secondary HRP-conjugated antibody (Promega anti-Mouse IgG (H+L) HRP, cat. no. W4021) and similar steps were taken for incubation, wash, detection and visualization steps as above. The data was analyzed using Alpha View software. The densitometric reading for each sample band was normalized to that of the corresponding actin band per lane.

IRAK4 [2] = molecular target: T1, IRAK4; assay: Western Assay for IRAK4 Degradation; type: cell-based; conditions: wild-type Jurkat cells, 4 hrs; approximate
Method: DMSO was stamped into wells A12-H12 at 500 nL/well (NC, Negative Control, maximum signal). […] Following incubation, plates were centrifuged for 5 min at 1600 rpm. […] Cells were lysed overnight at −20° C. Plates were centrifuged for 5 min at 1600 rpm and lysate supernatants were transferred to storage plates. […] Samples were separated by running gels at constant 200 V in NuPAGE MES SDS Running Buffer. Following electrophoresis, proteins were transferred to nitrocellulose membranes using an iBlot Gel Transfer Device and iBlot Gel Transfer Stacks (Thermo cat. no. IB21001 and IB301001) and transfer method PO (20V 1 min, 23V 4 min, 25V 2 min). Membranes were blocked for 1 hr in 5% milk solution (TBS (0.2% Tween-20)).
Following blocking, membranes were incubated with primary antibody overnight at 4° C. with gentle shaking. […] Blots were washed 3× in TBS (0.2% Tween-20), 5-10 min per wash. Following washes, blots were incubated in secondary HRP-conjugated antibody (Promega anti-Rabbit IgG (H+L) HRP, cat. no. W4011), 1:5000 in 5% milk solution (TBS (0.2% Tween-20)), for 1 hr at room temperature with gentle shaking. Blots were washed 3× in TBS (0.2% Tween-20), 5-10 min per wash. Blots were incubated with 1:1 mix of ECL reagents 1 & 2 (Amersham ECL Western Blotting Detection Reagent, cat. no. RPN2106) for 2-3 min at room temperature. Bands were visualized using a Protein Simple imager. […] The data was analyzed using Alpha View software. The densitometric reading for each sample band was normalized to that of the corresponding actin band per lane.

IRAK4 [3] = molecular target: T1, IRAK4; assay: IRAK4 Degradation HiBiT Assay; conditions: for Dmax: Jurkat
Aiolos = Aiolos (Homo sapiens (Human), UniProt Q96SW2+Q9UKT9); assay: Flow Cytometry-Based Assay for Aiolos Degradation; type: cell-based; conditions: 24 hours; for DC50: Jurkat cells (Clone E6-1); for Aiolos (CRBN neosubstrate) degradation, in words: Jurkat cells
Sequence of Aiolos (Q9UKT9 whole entry): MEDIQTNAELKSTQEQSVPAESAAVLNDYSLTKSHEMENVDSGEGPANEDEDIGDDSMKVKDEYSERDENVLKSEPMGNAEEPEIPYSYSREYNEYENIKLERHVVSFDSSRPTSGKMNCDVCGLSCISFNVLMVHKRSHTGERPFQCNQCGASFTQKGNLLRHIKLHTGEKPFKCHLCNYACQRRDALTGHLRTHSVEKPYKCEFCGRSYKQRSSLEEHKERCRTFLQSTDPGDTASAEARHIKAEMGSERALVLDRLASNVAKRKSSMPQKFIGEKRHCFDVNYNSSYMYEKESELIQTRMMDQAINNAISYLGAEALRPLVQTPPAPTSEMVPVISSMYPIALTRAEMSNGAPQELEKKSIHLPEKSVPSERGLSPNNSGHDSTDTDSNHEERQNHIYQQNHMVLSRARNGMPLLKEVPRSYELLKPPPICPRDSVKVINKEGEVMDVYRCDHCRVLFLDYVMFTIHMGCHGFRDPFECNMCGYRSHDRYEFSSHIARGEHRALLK
Sequence of Aiolos (Q96SW2 whole entry): as the sequence (Q96SW2 whole entry) above
Sequence of Aiolos (Q16531 whole entry partner): as the sequence (Q16531 whole entry partner) above
Method: Flow Cytometry-Based Assay for Aiolos and Ikaros Degradation
Jurkat cells (Clone E6-1) were treated with DMSO or compound for 24 hours and then fixed and permeabilized using a Foxp3/Transcription Factor Fixation/Permeabilization Kit (eBioscience, cat. no. 00-5523). Cells were stained with fluorophore-conjugated antibodies against Ikaros (Biolegend 368414) and Aiolos (Biolegend, cat. no. 371106). An additional set of DMSO-treated cells was stained with fluorophore-conjugated isotype control antibodies (Biolegend, cat. no. 400254 and 400136). Stained cells were run on an Attune N×T Acoustic Focusing Flow Cytometer (Thermo-Fisher, cat. no. A29004), and data was analyzed using FlowJo (v10.5.3) and GraphPad Prism (v7.00) software. Single cells were gated, and the geometric mean fluorescence intensities (MFIs) of Ikaros and Aiolos were calculated. The MFI of the isotype control was calculated for each analyte and used to quantify background staining. Percent Ikaros or Aiolos degradation was calculated for each compound-treated sample using the following equation: % Degradation=[…]

IRAK1 = IRAK1 (Homo sapiens (Human), UniProt P51617); assay: Western Assay for IRAK1 Degradation; type: cell-based; conditions: wild-type Jurkat cells, 4 hrs
Sequence of IRAK1 (P51617 whole entry): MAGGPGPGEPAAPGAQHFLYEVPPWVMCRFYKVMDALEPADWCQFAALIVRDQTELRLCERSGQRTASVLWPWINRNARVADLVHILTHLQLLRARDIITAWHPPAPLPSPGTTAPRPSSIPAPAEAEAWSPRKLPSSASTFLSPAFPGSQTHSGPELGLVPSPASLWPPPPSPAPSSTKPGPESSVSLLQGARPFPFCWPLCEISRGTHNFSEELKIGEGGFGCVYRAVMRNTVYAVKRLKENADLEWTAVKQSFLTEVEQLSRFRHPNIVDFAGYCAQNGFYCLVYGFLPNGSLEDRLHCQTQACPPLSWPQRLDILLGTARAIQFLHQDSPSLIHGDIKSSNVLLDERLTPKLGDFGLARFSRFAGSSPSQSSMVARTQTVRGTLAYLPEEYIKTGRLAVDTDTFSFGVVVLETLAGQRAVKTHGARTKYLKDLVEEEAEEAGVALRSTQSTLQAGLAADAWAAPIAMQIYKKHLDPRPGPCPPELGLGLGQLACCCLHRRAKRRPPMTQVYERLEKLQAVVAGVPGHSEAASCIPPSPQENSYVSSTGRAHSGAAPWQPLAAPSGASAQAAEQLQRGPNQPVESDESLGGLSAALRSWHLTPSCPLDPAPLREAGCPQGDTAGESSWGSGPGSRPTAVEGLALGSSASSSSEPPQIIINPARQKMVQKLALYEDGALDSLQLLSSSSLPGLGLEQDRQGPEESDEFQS
Method: as §1, §2, §3

[4] = read-out: IRAK4 HiBit Dmax, C-terminal HiBiT-tagged Jurkat cells, 4 hrs, Tables 2-3
[5] = read-out: IRAK4 HiBit DC50, C-terminal HiBiT-tagged Jurkat cells, 4 hrs, Tables 2-3
[6] = read-out: Cellular IRAK4 HiBiT: Dmax, Table 4, HiBiT-tagged Jurkat cells, 4 hrs
[7] = read-out: Cellular IRAK4 HiBiT: Dmax, Table 5, multiple runs, HiBiT-tagged Jurkat cells, 4 hrs
[8] = read-out: Cellular IRAK4 HiBiT: DC50, Table 4, HiBiT-tagged Jurkat cells, 4 hrs
[9] = read-out: Cellular IRAK4 HiBiT: DC50, Table 5, multiple runs, HiBiT-tagged Jurkat cells, 4 hrs

| SMILES | Rescue by proteasome or Nedd8 inhibition (IRAK4 [1]) | DC50 (GSPT1) | DC50 (IRAK4 [2]) | Dmax (IRAK4 [2]) | Dmax (IRAK4 [3]; [4]) | DC50 (IRAK4 [3]; [5]) | DC50 (Aiolos) | DC50 (IRAK1) | Dmax (IRAK4 [3]; [6]) | Dmax (IRAK4 [3]; [7]) | DC50 (IRAK4 [3]; [8]) | DC50 (IRAK4 [3]; [9]) | Aiolos (CRBN neosubstrate) degradation, in words (Aiolos) |
| --- | --- | --- | --- | --- | --- | --- | --- | --- | --- | --- | --- | --- | --- |
| CC[C@@H]1[C@H](F)C(=O)N[C@@H]1COc1ncc(C#CCN2CCC3(CC2)CCN(c2ncc(C(=O)N[C@H](C(=O)N4C[C@H](O)C[C@H]4C(=O)NCc4ccc(-c5scnc5C)cc4)C(C)(C)C)cn2)CC3)c2cc(C(N)=O)c(OC)cc12 [Comparative b1, reference compound] | YES | > 10 µM | 70 nM | 86% | 95% | 204 nM | > 5 µM | > 10 µM |  |  |  |  |  |
| CC(C)Nc1cc(-c2ccc3cc(C#N)cnn23)ncc1-c1nnc(N2CCN(C(=O)C3CCN(CC4CCN(c5ccc(-c6nn(C7CCC(=O)NC7=O)c(=O)n6C)cc5)CC4)CC3)CC2)s1 (stereo not drawn) [Example 24, 7-(5-(5-(4-(1-((1-(4-(1-(2,6-dioxopiperidin-3-yl)-4-methyl-5-oxo-4,5-dihydro-1H-1,2,4-triazol-3-yl)phenyl)piperidin-4-yl)methyl)piperidine-4-carbonyl)piperazin-1-yl)-1,3,4-thiadiazol-2-yl)-4-(isopropylamino)pyridin-2-yl)pyrrolo[1,2-b]pyridazine-3-carbonitrile] | YES | > 10 µM | 200 nM | 90% | 102% | 327 nM | > 5 µM | > 10 µM | 102% | 112% | 327 nM | 310 nM | none of Compounds 13, 24, 47, and 35 displayed neosubstrate degradation |
| Cc1ncsc1-c1ccc(CNC(=O)[C@@H]2C[C@@H](O)CN2C(=O)[C@@H](NC(=O)C2(F)CC2)C(C)(C)C)c(OCCOCCC(=O)N2CCN(c3nnc(-c4cnc(-c5ccc6cc(C#N)cnn56)cc4NC(C)C)s3)CC2)c1 [Example 47, (2S,4R)—N-(2-(2-(3-(4-(5-(6-(3-cyanopyrrolo[1,2-b]pyridazin-7-yl)-4-(isopropylamino)pyridin-3-yl)-1,3,4-thiadiazol-2-yl)piperazin-1-yl)-3-oxopropoxy)ethoxy)-4-(4-methylthiazol-5-yl)benzyl)-1-((S)-2-(1-fluorocyclopropane-1-carboxamido)-3,3-dimethylbutanoyl)-4-hydroxypyrrolidine-2-carboxamide] | YES | > 10 µM | 89 nM | 99% | 118% | 144 nM | > 5 µM | > 10 µM | 118% | 118% | 144 nM | 144 nM | none of Compounds 13, 24, 47, and 35 displayed neosubstrate degradation |

Second part, led by results:

| Rescue by proteasome or Nedd8 inhibition (IRAK4 [1]) | DC50 (GSPT1) | DC50 (IRAK4 [2]) | Dmax (IRAK4 [2]) | Dmax (IRAK4 [3]; [4]) | DC50 (IRAK4 [3]; [5]) | DC50 (Aiolos) | DC50 (IRAK1) | Dmax (IRAK4 [3]; [6]) | Dmax (IRAK4 [3]; [7]) | DC50 (IRAK4 [3]; [8]) | DC50 (IRAK4 [3]; [9]) | SMILES | Aiolos (CRBN neosubstrate) degradation, in words (Aiolos) |
| --- | --- | --- | --- | --- | --- | --- | --- | --- | --- | --- | --- | --- | --- |
| YES | > 10 µM | 200 nM | 86% | 100% | 590 nM | > 5 µM | > 10 µM | 100% | 100% | 590 nM | 235 nM | Cc1ncsc1-c1ccc(CNC(=O)[C@@H]2C[C@@H](O)CN2C(=O)[C@@H](NC(=O)CCCC(=O)N2CCN(c3nnc(-c4cnc(-c5ccc6cc(C#N)cnn56)cc4NC(C)C)s3)CC2)C(C)(C)C)cc1 [Example 35, (2S,4R)-1-((S)-2-(5-(4-(5-(6-(3-cyanopyrrolo[1,2-b]pyridazin-7-yl)-4-(isopropylamino)pyridin-3-yl)-1,3,4-thiadiazol-2-yl)piperazin-1-yl)-5-oxopentanamido)-3,3-dimethylbutanoyl)-4-hydroxy-N-(4-(4-methylthiazol-5-yl)benzyl)pyrrolidine-2-carboxamide] | none of Compounds 13, 24, 47, and 35 displayed neosubstrate degradation |
| YES | > 10 µM | 14 nM | 87% | 101% | 26 nM | > 5 µM | > 10 µM | 101% | 100% | 25.6 nM | 27 nM | CC(C)Nc1cc(-c2ccc3cc(C#N)cnn23)ncc1-c1nnc(N2CCN(C(=O)C3CCN(Cc4ccc5c(c4)C(=O)N(C4CCC(=O)NC4=O)C5=O)CC3)CC2)s1 (stereo not drawn) [Example 13, 7-(5-(5-(4-(1-((2-(2,6-dioxopiperidin-3-yl)-1,3-dioxoisoindolin-5-yl)methyl)piperidine-4-carbonyl)piperazin-1-yl)-1,3,4-thiadiazol-2-yl)-4-(isopropylamino)pyridin-2-yl)pyrrolo[1,2-b]pyridazine-3-carbonitrile] | none of Compounds 13, 24, 47, and 35 displayed neosubstrate degradation |
| YES | > 10 µM | 1 nM | 54% | 88% | 26 nM | 0.02 µM | > 10 µM |  |  |  |  | NC(=O)c1nn(-c2ccc(C(=O)NCCOCCOCCNc3cccc4c3C(=O)N(C3CCC(=O)NC3=O)C4=O)cc2)cc1NC(=O)c1coc(-c2ccnc(NCC(F)(F)F)c2)n1 (stereo not drawn) [Comparative Compound a2, reference compound] | induced neosubstrate degradation; also recorded: degraded both Ikaros and Aiolos |
